Source: ChEMBL document CHEMBL4418912, “Methods of identifying antagonists of the hTAS2R46 bitter taste receptor” (2014)
Active and inactive are the calls of the source. No cut-off for these calls is given here.

Experiments:
Type in all cases: functional, cell-based
[1] = biological target: T1, Taste receptor type 2 member 10 (Homo sapiens) (UniProt Q9NYW0); assay: Agonist activity at recombinant human N-terminal rat ST3 receptor-fused TAS2R10 expressed in HEK293T cells co-expressing Galpha16gust44 assessed as increase in intracellular calcium level at 100 uM by FLIPR assay
T1 sequence (whole entry): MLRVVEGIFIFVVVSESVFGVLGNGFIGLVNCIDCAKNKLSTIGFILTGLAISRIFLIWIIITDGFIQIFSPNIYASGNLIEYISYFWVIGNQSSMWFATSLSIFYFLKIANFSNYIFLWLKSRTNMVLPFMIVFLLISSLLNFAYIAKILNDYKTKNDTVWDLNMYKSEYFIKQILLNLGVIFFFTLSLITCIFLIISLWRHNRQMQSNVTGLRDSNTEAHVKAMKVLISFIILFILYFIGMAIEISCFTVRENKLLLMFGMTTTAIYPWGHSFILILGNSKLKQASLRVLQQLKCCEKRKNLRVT

[2] = biological target: T2, Taste receptor type 2 member 46 (Homo sapiens) (UniProt P59540); assay: Antagonist activity at recombinant human N-terminal rat ST3 receptor-fused TAS2R46 expressed in HEK293T cells co-expressing Galpha16gust44 assessed as inhibition of picrotoxinin-induced intracellular calcium level at 100 uM by FLIPR assay
T2 sequence (whole entry): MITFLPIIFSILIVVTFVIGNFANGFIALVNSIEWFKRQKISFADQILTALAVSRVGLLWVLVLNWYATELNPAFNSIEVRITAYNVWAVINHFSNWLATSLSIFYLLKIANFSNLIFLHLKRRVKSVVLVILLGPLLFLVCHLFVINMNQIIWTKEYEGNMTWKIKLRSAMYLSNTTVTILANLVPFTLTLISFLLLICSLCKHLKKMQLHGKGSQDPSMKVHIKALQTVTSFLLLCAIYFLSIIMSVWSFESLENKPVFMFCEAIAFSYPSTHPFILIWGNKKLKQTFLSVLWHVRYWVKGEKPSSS

[3] = biological target: T3, Taste receptor type 2 member 1 (Homo sapiens) (UniProt Q9NYW7); assay: Antagonist activity at recombinant human N-terminal rat ST3 receptor-fused TAS2R1 expressed in HEK293T cells co-expressing Galpha16gust44 assessed as inhibition of trans-isocohumulone-induced increase in intracellular calcium level at 100 uM by FLIPR assay
T3 sequence (whole entry): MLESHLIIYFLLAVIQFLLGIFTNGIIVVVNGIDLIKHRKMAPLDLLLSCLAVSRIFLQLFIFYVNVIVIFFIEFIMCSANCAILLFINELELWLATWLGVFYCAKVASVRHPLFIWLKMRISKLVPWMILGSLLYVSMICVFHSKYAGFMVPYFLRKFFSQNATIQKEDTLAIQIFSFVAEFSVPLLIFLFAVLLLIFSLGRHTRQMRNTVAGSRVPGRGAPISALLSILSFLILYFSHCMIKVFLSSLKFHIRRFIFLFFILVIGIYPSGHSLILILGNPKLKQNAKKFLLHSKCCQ

[4] = biological target: T4, Taste receptor type 2 member 8 (Homo sapiens) (UniProt Q9NYW2); assay: Antagonist activity at recombinant human N-terminal rat ST3 receptor-fused TAS2R8 expressed in HEK293T cells co-expressing Galpha16gust44 assessed as inhibition of chloramphenicol-induced increase in intracellular calcium level at 100 uM by FLIPR assay
T4 sequence (whole entry): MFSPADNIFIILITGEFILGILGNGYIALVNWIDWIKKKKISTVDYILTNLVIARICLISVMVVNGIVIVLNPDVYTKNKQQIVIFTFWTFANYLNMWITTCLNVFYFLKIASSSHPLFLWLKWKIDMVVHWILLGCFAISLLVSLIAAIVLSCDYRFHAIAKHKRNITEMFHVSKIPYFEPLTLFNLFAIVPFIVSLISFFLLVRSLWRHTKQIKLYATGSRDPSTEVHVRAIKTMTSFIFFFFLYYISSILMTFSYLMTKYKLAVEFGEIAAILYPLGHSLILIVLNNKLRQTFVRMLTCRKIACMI

[5] = biological target: T5, Taste receptor type 2 member 13 (Homo sapiens) (UniProt Q9NYV9); assay: Antagonist activity at recombinant human N-terminal rat ST3 receptor-fused TAS2R13 expressed in HEK293T cells co-expressing Galpha16gust44 assessed as inhibition of denatonium benzoate-induced increase in intracellular calcium level at 100 uM by FLIPR assay
T5 sequence (whole entry): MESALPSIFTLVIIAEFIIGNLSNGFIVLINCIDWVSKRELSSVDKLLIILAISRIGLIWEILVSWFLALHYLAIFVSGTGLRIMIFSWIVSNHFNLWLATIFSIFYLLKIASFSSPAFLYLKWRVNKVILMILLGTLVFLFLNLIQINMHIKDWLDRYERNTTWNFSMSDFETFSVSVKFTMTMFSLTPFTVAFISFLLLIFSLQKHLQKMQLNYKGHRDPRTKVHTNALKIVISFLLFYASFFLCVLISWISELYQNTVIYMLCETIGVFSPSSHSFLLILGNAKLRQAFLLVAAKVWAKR

[6] = biological target: T6, Taste receptor type 2 member 14 (Homo sapiens) (UniProt Q9NYV8); assay: Antagonist activity at recombinant human N-terminal rat ST3 receptor-fused TAS2R14 expressed in HEK293T cells co-expressing Galpha16gust44 assessed as inhibition of aristolochic acid-induced increase in intracellular calcium level at 100 uM by FLIPR assay
T6 sequence (whole entry): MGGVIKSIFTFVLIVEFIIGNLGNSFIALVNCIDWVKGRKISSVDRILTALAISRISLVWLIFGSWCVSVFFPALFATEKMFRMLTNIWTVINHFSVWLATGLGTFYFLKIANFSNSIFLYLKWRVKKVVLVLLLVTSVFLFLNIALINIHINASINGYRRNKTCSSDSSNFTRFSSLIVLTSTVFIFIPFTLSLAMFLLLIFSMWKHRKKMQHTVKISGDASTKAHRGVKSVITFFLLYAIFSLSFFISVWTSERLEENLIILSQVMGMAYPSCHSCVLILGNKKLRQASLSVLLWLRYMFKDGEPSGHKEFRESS

[7] = biological target: T7, Taste receptor type 2 member 50 (Homo sapiens) (UniProt P59544); assay: Antagonist activity at recombinant human N-terminal rat ST3 receptor-fused TAS2R50 expressed in HEK293T cells co-expressing Galpha16gust44 assessed as inhibition of andrographolide-induced increase in intracellular calcium level at 100 uM by FLIPR assay
T7 sequence (whole entry): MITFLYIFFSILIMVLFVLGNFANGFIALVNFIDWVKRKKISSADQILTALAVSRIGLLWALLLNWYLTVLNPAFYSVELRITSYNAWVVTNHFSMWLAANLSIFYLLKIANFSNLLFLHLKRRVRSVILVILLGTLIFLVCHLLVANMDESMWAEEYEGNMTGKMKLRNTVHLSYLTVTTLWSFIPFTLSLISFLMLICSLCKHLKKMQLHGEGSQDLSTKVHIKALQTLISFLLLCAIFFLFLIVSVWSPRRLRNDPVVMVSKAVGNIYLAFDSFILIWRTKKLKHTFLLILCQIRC

SMILES | Activity [1] | inhibition [2] | inhibition [3] | inhibition [4] | inhibition [5] | inhibition [6] | inhibition [7]
C/C1=C\C[C@H](O)[C@@H](C)C[C@H]2OC(=O)[C@@H](C)[C@@H]2CC1 | Active | Active | inactive | inactive | inactive | inactive | inactive
C/C1=C\C[C@H](O)/C(C)=C/[C@H]2OC(=O)[C@@H](C)[C@@H]2CC1 | Active | Active | inactive | inactive | inactive | inactive | inactive
